≈ marks a conversion by molar mass, not a printed value. Calls of active or inactive are those of the source. The rule behind the calls is not given here.

What is called inhibition is the drop in the measured response relative to a control, in per cent. Read a high inhibition as a strong effect. For orientation: solubility (kinetic) means the concentration staying in solution when a stock, usually in DMSO, is diluted into the medium. One may read the GI50 as the concentration giving 50% growth inhibition.

Data set [1] addresses T1, Tubulin (Homo sapiens) (UniProt P68371+Q9H4B7+P0DPH7+P68366+Q13509+Q71U36+P04350+Q3ZCM7+P07437+P68363+Q9BQE3+Q6PEY2+Q13885+Q9BVA1+Q9BUF5). Kind of data set: Inhibition of microtubule (unknown origin) polymerization at 25 uM by fluorescence- based assay relative to control. Format: protein-complex assay.
Data set [2] relates to HeLa. Kind of data set: Antimitotic effect in human HeLa cells expressing EGFP-tubulin assessed as chromosome congression defect by measuring correcting the syntelic attachment at 7.5 nM incubated for 4 hrs by live-cell imaging/inverted microscopy. Format: functional, cell-based.
Data set [3] deals with HeLa. Kind of data set: Antimitotic effect in human HeLa cells expressing EGFP-tubulin assessed as chromosome congression defect by measuring progressing through mitosis to prolonged pro-metaphase arrest at 7.5 nM incubated for 4 hrs by immunolabelling based live-cell imaging/inverted microscopy. Format: functional.
Data set [4] deals with HeLa. The data set is described as follows: Antimitotic effect in human HeLa cells expressing EGFP-tubulin assessed as chromosome congression defect by measuring mitotic exit/cell death at 7.5 nM incubated for 4 hrs by immunolabelling based live-cell imaging/inverted microscopy. In kind it is functional.
Data set [5] can be described thus: Solubility of the compound by laser nephelometry. In kind it is physicochemical.
The target in data set [6] is T1, Tubulin (Homo sapiens). Kind of data set: Induction of microtubule organization changes in human Hela cells assessed as decrease in spindle length at GI50 concentration incubated for 4 hrs by inverted microscopy. Format: cell-based.
Data set [7] can be described thus: Therapeutic index, ratio of GI50 for human PNT1A cells to GI50 for human HeLa cells. In kind it is toxicity. The following applies: PNT1A cells and HeLa cells, read-out: TI.
Data set [8] deals with HeLa. The data set is described as follows: Induction of apoptosis in human HeLa cells assessed as total number of cells died at 20 uM measured upto 30 hrs by Annexin V labelling method relative to control. In kind it is functional.
The subject of data set [9] is HeLa. Kind of data set: Antiproliferative activity against human HeLa cells assessed as reduction in cell viability incubated for 48 hrs by MTT assay. Format: functional. A general note: Tetrazolium assays rely on reduction of a dye to a coloured formazan, in cell work by metabolically active cells.

`C#CCCCc1nc(=O)c2c(-c3ccccc3)c(C(=O)c3ccc(OCCOCC)cc3)[nH]c2[nH]1` showed an inhibition against Tubulin (Homo sapiens) [1] of 100%. Moreover, the result in the data set on HeLa [2], in the data set on HeLa [3], in the data set with HeLa [4] and at Tubulin (Homo sapiens) [6] was Active. Also, the solubility (kinetic) in data set [5] was 14 µM (≈ 6.57 µg/mL). Moreover, the selectivity ratio in data set [7] was 2.
In the case of `C#CCCCc1nc(=O)c2c(-c3cccc(F)c3)c(C(=O)c3ccc(OCCOCC)cc3)[nH]c2[nH]1`, at Tubulin (Homo sapiens) [1], the inhibition came out at 100%. Also, in the data set on HeLa [8], the Activity is listed as 87%. In addition, the 50% growth inhibitory concentration (GI50) with HeLa [9] was 16 nM. In addition, the solubility (kinetic) in data set [5] worked out at 14 µM (≈ 6.83 µg/mL). Also, the result at Tubulin (Homo sapiens) [6] was Active. The selectivity ratio in data set [7] was determined as 2.
For `C#CCCCc1nc(=O)c2c(-c3ccccc3)c(C(=O)c3ccc(OCCN4CCCC4)cc3)[nH]c2[nH]1`, the solubility entry in data set [5] is on record as “Soluble”.
Take `C#CCCCc1nc(=O)c2c(-c3ccccc3)c(C(=O)c3ccccc3)[nH]c2[nH]1`: the inhibition at Tubulin (Homo sapiens) [1] came out at 100%.
Regarding `C#CCCCc1nc(=O)c2c(-c3cccc(Br)n3)c(C(=O)c3ccc(OCCOCC)cc3)[nH]c2[nH]1`, in the data set with HeLa [9], the 50% growth inhibitory concentration (GI50) amounted to 22.4 nM.
At Tubulin (Homo sapiens) [1], `C#CCCCc1nc(=O)c2c(-c3ccccc3)c(C(=O)c3ccc(OCCN4CCOCC4)cc3)[nH]c2[nH]1` yielded an inhibition of 100%. Further, the solubility result in [5] is “Soluble”. Further, at Tubulin (Homo sapiens) [6], the result was Active.
Consider `C#CCCCc1nc(=O)c2c(-c3ccccc3)c(C(=O)c3ccc(N4CCOCC4)cc3)[nH]c2[nH]1`, for which, in data set [7], the selectivity ratio came to 2.
In the case of `C#CCCCc1nc(=O)c2c(-c3cc(F)cc(F)c3)c(C(=O)c3ccc(OCCOCC)cc3)[nH]c2[nH]1`, the Activity in the data set with HeLa [8] was 85%. In addition, the kinetic solubility in [5] was 14 µM (≈ 7.08 µg/mL). For the same compound, the outcome on Tubulin (Homo sapiens) [6] was Active.

Values taken from ChEMBL document CHEMBL5512693, “Improved Rigidin-Inspired Antiproliferative Agents with Modifications on the 7-Deazahypoxanthine C7/C8 Ring Systems” (J Med Chem, 2024).
